In ChEMBL document CHEMBL1137885, “P4 and P1' optimization of bicycloproline P2 bearing tetrapeptidyl alpha-ketoamides as HCV protease inhibitors” (Bioorg Med Chem Lett, 2004):

system: Huh-7; test: Cytotoxic concentration against Huh-7 liver cells in XTT cytotoxicity assay; assay type: functional; details: Homo sapiens

| Compound | CC50 [µM] |
| --- | --- |
| CCCC(NC(=O)[C@@H]1C2CCCC2CN1C(=O)[C@@H](NC(=O)[C@@H](NC(=O)c1cnccn1)C1CCCCC1)C(C)(C)C)C(=O)C(=O)N[C@H](C)c1ccccc1 (some centres undefined) | 22 |
| CCCC(NC(=O)[C@@H]1C2CCCC2CN1C(=O)[C@@H](NC(=O)[C@@H](NC(=O)c1cnccn1)C1CCCCC1)C(C)(C)C)C(=O)C(=O)N[C@H](C)CC (some centres undefined) | 69.2 |

biological target: Plasminogen (Homo sapiens, UniProt P00747); test: Binding affinity towards human plasmin; details: not given
Sequence (P00747 97-580 limits assumed): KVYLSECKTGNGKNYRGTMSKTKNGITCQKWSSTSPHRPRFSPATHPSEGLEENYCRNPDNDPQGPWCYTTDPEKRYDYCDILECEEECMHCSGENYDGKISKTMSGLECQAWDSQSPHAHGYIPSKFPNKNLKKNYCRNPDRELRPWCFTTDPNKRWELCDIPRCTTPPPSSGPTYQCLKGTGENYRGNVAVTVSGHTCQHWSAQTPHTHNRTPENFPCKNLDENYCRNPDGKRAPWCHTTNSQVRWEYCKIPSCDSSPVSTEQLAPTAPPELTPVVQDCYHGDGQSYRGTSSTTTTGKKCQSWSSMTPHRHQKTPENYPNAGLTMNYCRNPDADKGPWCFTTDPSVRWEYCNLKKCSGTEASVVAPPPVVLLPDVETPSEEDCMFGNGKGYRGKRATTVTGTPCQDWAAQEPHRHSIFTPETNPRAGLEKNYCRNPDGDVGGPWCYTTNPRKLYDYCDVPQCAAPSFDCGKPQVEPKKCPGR
Sequence (P00747 581-810 limits assumed): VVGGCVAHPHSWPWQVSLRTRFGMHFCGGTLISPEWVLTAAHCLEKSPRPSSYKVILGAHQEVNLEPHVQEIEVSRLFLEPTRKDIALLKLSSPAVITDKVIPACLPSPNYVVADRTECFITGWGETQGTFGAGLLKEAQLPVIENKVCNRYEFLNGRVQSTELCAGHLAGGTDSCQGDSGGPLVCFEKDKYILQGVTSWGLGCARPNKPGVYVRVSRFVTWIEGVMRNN

| Compound | Ki [µM] |
| --- | --- |
| CCCC(NC(=O)[C@@H]1C2CCCC2CN1C(=O)[C@@H](NC(=O)[C@@H](NC(=O)c1cnccn1)C1CCCCC1)C(C)(C)C)C(=O)C(=O)N[C@H](C)c1ccccc1 (some centres undefined) | > 50 |
| CCCC(NC(=O)[C@@H]1C2CCCC2CN1C(=O)[C@@H](NC(=O)[C@@H](NC(=O)c1cnccn1)C1CCCCC1)C(C)(C)C)C(=O)C(=O)N[C@H](C)CC (some centres undefined) | > 50 |

biological target: Trypsin (Homo sapiens, UniProt P07477+P07478+P35030); test: Binding affinity towards human trypsin; assay type: protein assay; details: not given

| Compound | Ki [µM] |
| --- | --- |
| CCCC(NC(=O)[C@@H]1C2CCCC2CN1C(=O)[C@@H](NC(=O)[C@@H](NC(=O)c1cnccn1)C1CCCCC1)C(C)(C)C)C(=O)C(=O)N[C@H](C)c1ccccc1 (some centres undefined) | > 50 |
| CCCC(NC(=O)[C@@H]1C2CCCC2CN1C(=O)[C@@H](NC(=O)[C@@H](NC(=O)c1cnccn1)C1CCCCC1)C(C)(C)C)C(=O)C(=O)N[C@H](C)CC (some centres undefined) | > 50 |

system: Huh-7; test: Ratio of CC50 to that of IC50 value; assay type: functional, Homo sapiens; details: not given

| Compound | Ratio |
| --- | --- |
| CCCC(NC(=O)[C@@H]1C2CCCC2CN1C(=O)[C@@H](NC(=O)[C@@H](NC(=O)c1cnccn1)C1CCCCC1)C(C)(C)C)C(=O)C(=O)N[C@H](C)c1ccccc1 (some centres undefined) | 105 |
| CCCC(NC(=O)[C@@H]1C2CCCC2CN1C(=O)[C@@H](NC(=O)[C@@H](NC(=O)c1cnccn1)C1CCCCC1)C(C)(C)C)C(=O)C(=O)N[C@H](C)CC (some centres undefined) | 65 |

biological target: Prothrombin (Homo sapiens, UniProt P00734); test: Binding affinity towards human thrombin; details: not given

| Compound | Ki [µM] |
| --- | --- |
| CCCC(NC(=O)[C@@H]1C2CCCC2CN1C(=O)[C@@H](NC(=O)[C@@H](NC(=O)c1cnccn1)C1CCCCC1)C(C)(C)C)C(=O)C(=O)N[C@H](C)c1ccccc1 (some centres undefined) | > 50 |
| CCCC(NC(=O)[C@@H]1C2CCCC2CN1C(=O)[C@@H](NC(=O)[C@@H](NC(=O)c1cnccn1)C1CCCCC1)C(C)(C)C)C(=O)C(=O)N[C@H](C)CC (some centres undefined) | > 50 |

biological target: Plasma kallikrein (Homo sapiens, UniProt P03952); test: Binding affinity towards human kallikrein; details: not given
Sequence (P03952 20-390 limits assumed): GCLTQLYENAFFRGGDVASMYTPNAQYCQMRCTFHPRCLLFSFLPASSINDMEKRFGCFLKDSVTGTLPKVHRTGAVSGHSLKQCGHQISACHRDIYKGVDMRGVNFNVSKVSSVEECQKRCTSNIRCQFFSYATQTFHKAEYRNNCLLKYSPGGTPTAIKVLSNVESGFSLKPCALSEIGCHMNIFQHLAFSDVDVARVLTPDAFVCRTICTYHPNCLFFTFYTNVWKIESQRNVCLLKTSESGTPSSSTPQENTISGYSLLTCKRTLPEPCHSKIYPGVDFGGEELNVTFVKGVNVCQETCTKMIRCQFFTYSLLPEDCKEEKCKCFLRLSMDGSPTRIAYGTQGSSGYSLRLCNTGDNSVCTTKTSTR
Sequence (P03952 391-638 limits assumed): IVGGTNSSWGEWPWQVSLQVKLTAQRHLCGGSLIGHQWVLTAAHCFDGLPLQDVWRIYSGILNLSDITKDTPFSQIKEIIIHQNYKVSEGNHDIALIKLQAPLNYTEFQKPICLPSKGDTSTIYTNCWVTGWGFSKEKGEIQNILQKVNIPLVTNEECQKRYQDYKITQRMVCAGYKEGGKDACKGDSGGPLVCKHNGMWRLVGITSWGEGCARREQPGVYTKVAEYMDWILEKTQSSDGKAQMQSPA

| Compound | Ki [µM] |
| --- | --- |
| CCCC(NC(=O)[C@@H]1C2CCCC2CN1C(=O)[C@@H](NC(=O)[C@@H](NC(=O)c1cnccn1)C1CCCCC1)C(C)(C)C)C(=O)C(=O)N[C@H](C)c1ccccc1 (some centres undefined) | > 50 |
| CCCC(NC(=O)[C@@H]1C2CCCC2CN1C(=O)[C@@H](NC(=O)[C@@H](NC(=O)c1cnccn1)C1CCCCC1)C(C)(C)C)C(=O)C(=O)N[C@H](C)CC (some centres undefined) | > 50 |

biological target: Cathepsin B (Homo sapiens, UniProt P07858); test: Binding affinity towards human cathepsin B; details: not given

| Compound | Ki [µM] |
| --- | --- |
| CCCC(NC(=O)[C@@H]1C2CCCC2CN1C(=O)[C@@H](NC(=O)[C@@H](NC(=O)c1cnccn1)C1CCCCC1)C(C)(C)C)C(=O)C(=O)N[C@H](C)c1ccccc1 (some centres undefined) | 283 |
| CCCC(NC(=O)[C@@H]1C2CCCC2CN1C(=O)[C@@H](NC(=O)[C@@H](NC(=O)c1cnccn1)C1CCCCC1)C(C)(C)C)C(=O)C(=O)N[C@H](C)CC (some centres undefined) | 13 |

biological target: Chymotrypsinogen B (Homo sapiens, UniProt P17538); test: Binding affinity towards human Chymotrypsinogen; details: not given
Sequence (P17538 34-164 limits assumed, other chains not shown): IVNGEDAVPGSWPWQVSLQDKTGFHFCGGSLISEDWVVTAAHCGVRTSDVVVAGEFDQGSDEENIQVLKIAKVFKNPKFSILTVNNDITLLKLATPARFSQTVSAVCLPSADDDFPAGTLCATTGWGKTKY
Sequence (P17538 167-263 limits assumed, other chains not shown): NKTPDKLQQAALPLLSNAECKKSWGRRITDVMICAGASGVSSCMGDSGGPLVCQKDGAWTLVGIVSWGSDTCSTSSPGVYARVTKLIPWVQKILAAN

| Compound | Ki [µM] |
| --- | --- |
| CCCC(NC(=O)[C@@H]1C2CCCC2CN1C(=O)[C@@H](NC(=O)[C@@H](NC(=O)c1cnccn1)C1CCCCC1)C(C)(C)C)C(=O)C(=O)N[C@H](C)c1ccccc1 (some centres undefined) | > 50 |
| CCCC(NC(=O)[C@@H]1C2CCCC2CN1C(=O)[C@@H](NC(=O)[C@@H](NC(=O)c1cnccn1)C1CCCCC1)C(C)(C)C)C(=O)C(=O)N[C@H](C)CC (some centres undefined) | > 50 |

biological target: NS3 (Hepatitis C virus, UniProt A3EZJ3); test: Inhibition of HCV NS3 protease in the pNA based inhibition assay; design: species or system Hepacivirus hominis; details: not given
Sequence (A3EZJ3 whole entry): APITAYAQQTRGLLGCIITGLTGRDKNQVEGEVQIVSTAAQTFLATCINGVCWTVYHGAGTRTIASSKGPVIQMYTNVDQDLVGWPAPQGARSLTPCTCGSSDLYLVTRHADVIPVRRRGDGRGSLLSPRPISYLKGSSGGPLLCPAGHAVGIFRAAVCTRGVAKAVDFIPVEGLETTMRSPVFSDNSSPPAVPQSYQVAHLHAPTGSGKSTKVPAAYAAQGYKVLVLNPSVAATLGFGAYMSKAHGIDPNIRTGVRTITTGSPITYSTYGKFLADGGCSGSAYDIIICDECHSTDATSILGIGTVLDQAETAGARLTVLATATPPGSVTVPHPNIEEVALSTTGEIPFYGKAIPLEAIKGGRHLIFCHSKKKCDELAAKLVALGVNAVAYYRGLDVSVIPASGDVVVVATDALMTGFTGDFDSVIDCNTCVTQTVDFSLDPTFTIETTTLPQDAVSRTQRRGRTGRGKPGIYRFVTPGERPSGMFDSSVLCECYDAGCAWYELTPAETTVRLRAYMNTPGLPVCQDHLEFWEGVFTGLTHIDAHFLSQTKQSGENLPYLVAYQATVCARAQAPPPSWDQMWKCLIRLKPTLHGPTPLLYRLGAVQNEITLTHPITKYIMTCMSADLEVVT

| Compound | Ki [µM] |
| --- | --- |
| CCCC(NC(=O)[C@@H]1C2CCCC2CN1C(=O)[C@@H](NC(=O)[C@@H](NC(=O)c1cnccn1)C1CCCCC1)C(C)(C)C)C(=O)C(=O)N[C@H](C)c1ccccc1 (some centres undefined) | 0.09 |
| CCCC(NC(=O)[C@@H]1C2CCCC2CN1C(=O)[C@@H](NC(=O)[C@@H](NC(=O)c1cnccn1)C1CCCCC1)C(C)(C)C)C(=O)C(=O)N[C@H](C)CC (some centres undefined) | 0.08 |

system: Hepatitis C virus; test: Inhibitory concentration against hepatitis C virus in replicon assay; assay type: functional, organism-based, Hepacivirus hominis; details: not given

| Compound | IC50 [µM] |
| --- | --- |
| CCCC(NC(=O)[C@@H]1C2CCCC2CN1C(=O)[C@@H](NC(=O)[C@@H](NC(=O)c1cnccn1)C1CCCCC1)C(C)(C)C)C(=O)C(=O)N[C@H](C)c1ccccc1 (some centres undefined) | 0.21 |
| CCCC(NC(=O)[C@@H]1C2CCCC2CN1C(=O)[C@@H](NC(=O)[C@@H](NC(=O)c1cnccn1)C1CCCCC1)C(C)(C)C)C(=O)C(=O)N[C@H](C)CC (some centres undefined) | 1.07 |

biological target: not listed separately; test: Selectivity for HCV NS3 over human elastase; details: not given

| Compound | selectivity ratio |
| --- | --- |
| CCCC(NC(=O)[C@@H]1C2CCCC2CN1C(=O)[C@@H](NC(=O)[C@@H](NC(=O)c1cnccn1)C1CCCCC1)C(C)(C)C)C(=O)C(=O)N[C@H](C)c1ccccc1 (some centres undefined) | 29 |
| CCCC(NC(=O)[C@@H]1C2CCCC2CN1C(=O)[C@@H](NC(=O)[C@@H](NC(=O)c1cnccn1)C1CCCCC1)C(C)(C)C)C(=O)C(=O)N[C@H](C)CC (some centres undefined) | 81 |

biological target: Procathepsin L (Homo sapiens, UniProt P07711); test: Selectivity for HCV NS3 over human cathepsin L; details: not given
Sequence (P07711 whole entry): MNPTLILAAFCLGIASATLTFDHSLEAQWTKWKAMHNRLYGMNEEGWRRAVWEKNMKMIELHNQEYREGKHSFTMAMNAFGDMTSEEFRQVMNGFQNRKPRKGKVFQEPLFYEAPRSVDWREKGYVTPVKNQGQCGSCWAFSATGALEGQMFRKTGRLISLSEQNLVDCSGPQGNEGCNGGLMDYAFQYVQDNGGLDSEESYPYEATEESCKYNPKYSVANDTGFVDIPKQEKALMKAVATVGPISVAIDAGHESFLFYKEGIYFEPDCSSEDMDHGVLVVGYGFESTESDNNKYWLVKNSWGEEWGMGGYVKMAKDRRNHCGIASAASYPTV

| Compound | selectivity ratio |
| --- | --- |
| CCCC(NC(=O)[C@@H]1C2CCCC2CN1C(=O)[C@@H](NC(=O)[C@@H](NC(=O)c1cnccn1)C1CCCCC1)C(C)(C)C)C(=O)C(=O)N[C@H](C)c1ccccc1 (some centres undefined) | 51 |
| CCCC(NC(=O)[C@@H]1C2CCCC2CN1C(=O)[C@@H](NC(=O)[C@@H](NC(=O)c1cnccn1)C1CCCCC1)C(C)(C)C)C(=O)C(=O)N[C@H](C)CC (some centres undefined) | 107 |
